From article PMC8308845, “Discovery of Novel Chemical Series of OXA-48 β-Lactamase Inhibitors by High-Throughput Screening” (Pharmaceuticals, 2021) come the findings set out here.

The target in assay [1] is T1, OXA-48 (Klebsiella pneumoniae, UniProt Q6XEC0).
T1 construct: made in house; host or cells: E. coli BL21(DE3), T7 expression system
In words: Dilution after preincubation of OXA-48 with inhibitors. It counts as biochemical. As for the experimental part:
To confirm the reversibility of OXA-48 inhibition by compounds ID1 and ID2, dilution-after-preincubation tests were also performed. Specifically, the experiments were conducted by preincubating (0 and 60 min) five-fold concentrated test compounds and OXA-48 enzyme, next diluting (1:5) the assay well to the standard reaction conditions and adding the nitrocefin substrate. In parallel, a control experiment with compounds ID1 and ID2 tested under the standard protocol was also run. Based on the assay design, reversible inhibitors are expected to regain enzyme activity after dilution of the enzyme-inhibitor (EI) complex and show no significant difference between AC50 values from samples preincubated under high-concentration and standard conditions. Conversely, irreversible inhibitors are envisaged not to recover any enzyme activity following dilution of the tight EI complex, which will translate in a […] in OXA-48 AC50 of high-concentration preincubated samples.
In order to validate the results obtained in the time-dependent inhibition assay, dose–response curves of reference inhibitor tazobactam, test compounds and enzyme mix were prepared as above described and 5-fold concentrated. Compounds (20 μL of 10X compounds) and enzyme (10 μL 20X enzyme in order to have a 0.0014 ng/µL OXA-48 final concentration) were preincubated for a time period of 60 min with the selected compounds and 90 min with tazobactam. The preincubation time was identified in the time-dependent inhibition experiment as suitable to detect a shift of the IC50 value. At the end of preincubation, the mix was diluted 1:5 times to restore the standard assay conditions as described for time-dependent inhibition. The reactions were started by transferring of 15 μL of enzyme-compounds or control diluted from preincubation plate into assay plate and adding 5 μL 4X nitrocefin substrate (25 µM final concentration) after 60 or 90 min. In parallel, a control experiment was assembled under the same conditions, but omitting the preincubation time between compounds and OXA-48.
a. If the AC50 value observed in the standard assay conditions was substantially unaffected by the preincubation with the 5X samples, the corresponding compound was classified as putative reversible inhibitor.

In assay [2] the test system is E. coli ATCC BAA-2523. In words: MIC by broth microdilution, β-lactam-resistant strain producing OXA-48. It counts as cell-based, Escherichia coli. Particulars: Escherichia coli, ATCCBAA2523, no β-lactam, BLI tested at 32 µg/mL, read-out: MIC, BLI alone. An excerpt:
(§1) To evaluate the capability of restoring β-lactam susceptibility, the two most promising representatives of SC_2 (ID3) and SC_7 (ID2) were screened alone and in combination with ampicillin (AMP) and IMP against sensitive and resistant Gram-negative bacteria. Avibactam and tazobactam were also included in the MIC characterization as BLI reference compounds. Specifically, we used E. coli ATCC25922 as antibiotic-sensitive strain, while E. coli ATCC BAA-2523 and K. pneumoniae ATCC BAA-2524 as β-lactam-resistant bacteria, producing OXA-48 carbapenemase.
(§2) Test compounds and tazobactam were tested at 32 µg/mL, while avibactam was applied at 4 µg/mL. […] Both antibiotics were selected for the combination study as they can be hydrolyzed by the target OXA-48 enzyme.
(§3) MIC values were determined by the broth dilution method and interpreted using published guidelines described by Clinical and Laboratory Standards Institute (CLSI).
(§4) All BLIs were dissolved in 100% DMSO and they were tested at a fixed concentration of 32 µg/mL and 1% of DMSO final concentration. Avibactam was used as reference β-lactamase inhibitor. All antimicrobials were prepared in line with CLSI susceptibility testing standards. AMP (USP # 1033000; batch no. K1M493) was dissolved at 5.12 mg/mL, IMP (USP # 1337809; batch no. R038R0) and avibactam (Biochem # NXL 104; batch no. 20180726) were dissolved at 1.28 mg/mL in the respective solvents recommended by CLSI (2). Solutions at 4X the final concentrations of the test range were made in Cation adjusted Mueller-Hinton broth (CA-MHB, BD # 212322; batch no. 6117994; Expiry date: 29.02.2020) by serial dilutions, and then diluted 2-fold with CA-MHB (for antimicrobials alone), or with the BLIs/avibactam (for combinations of new/reference inhibitors and antimicrobials). Moreover, all BLIs were tested alone at a fixed concentration of 32 μg/mL. The final concentration of DMSO in the test tubes was 1% for each different combination.
(§5) 50 μL of each well were then transferred from the masterblock into 96-well plates to whom were then added 50 μL of the final inoculum. MIC tests were performed by broth microdilution in line with CLSI susceptibility testing standards. Bacterial inocula were prepared at ca. 1 × 10^6 CFU/mL by diluting 100-fold a 0.5 McFarland suspension in CA-MHB with TES (TREK Diagnostic Systems, Product code: T3462; Batch: 356347; Expiry date: 12-Jun-2019). 50 μL of antibacterial solutions at 2 × the final concentrations were diluted 2-fold with 50 μL of inoculum to give a final inoculum of ca. 5 × 10^5 CFU/mL and desired test concentrations of antibacterial agents. Test plates were incubated according to CLSI guidelines and read visually. MIC values corresponded to the first well with no visible growth.
(In general: In broth dilution the organism is exposed to a series of concentrations in liquid medium.)

The test system of assay [3] is K. pneumoniae ATCC BAA-2524. Described as above. It counts as cell-based, Klebsiella pneumoniae. The conditions noted are these: Klebsiella pneumoniae, ATCCBAA2524, no β-lactam, BLI tested at 32 µg/mL, read-out: MIC, BLI alone.
From the text: as §1, §2, §3, §4, §5

Setting [4] is: preincubation time 0 min, concentrated compound and enzyme, diluted 1:5 before nitrocefin, read-out: OXA-48 AC50, High Dose Preincubation.
Where [5] appears, read: preincubation time 0 min, read-out: OXA-48 AC50, Standard Preincubation.
Where [6] appears, read: preincubation time 60 min, concentrated compound and enzyme, diluted 1:5 before nitrocefin, read-out: OXA-48 AC50, High Dose Preincubation.
[7] abbreviates: preincubation time 60 min, read-out: OXA-48 AC50, Standard Preincubation.

Read-outs that look alike come from different tables or passages of the source. Bounds are passed on as bounds.

T1 sequence (Q6XEC0 23-265, looked up): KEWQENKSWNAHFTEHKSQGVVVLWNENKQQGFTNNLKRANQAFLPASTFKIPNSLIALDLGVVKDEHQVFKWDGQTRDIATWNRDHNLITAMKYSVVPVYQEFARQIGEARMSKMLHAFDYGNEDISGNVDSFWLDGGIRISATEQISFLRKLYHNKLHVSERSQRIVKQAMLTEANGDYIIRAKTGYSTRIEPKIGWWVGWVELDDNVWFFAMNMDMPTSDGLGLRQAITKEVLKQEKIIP

One may read the AC50 as the concentration giving half of the maximal activity seen. With `O=C(O)c1ccc(C=Nn2c(S)nnc2-c2ccccc2)cc1` [ID1], the AC50 in assay [1] (setting [4]) came to 0.63 µM; in assay [1] (setting [5]), 1.73 µM; in assay [1] (setting [6]), 1.09 µM; in assay [1] (setting [7]), 1.93 µM.

In general, MIC refers to the lowest concentration found to suppress growth. In the case of `CCc1ccc(-c2n[nH]c3nc(-c4ccc(C(=O)O)cc4)cc(C(=O)O)c23)cc1` [ID2], the AC50 in assay [1] (setting [4]) was found to be 1.01 µM; in assay [1] (setting [5]), 2.31 µM; in assay [1] (setting [6]), 1.45 µM; in assay [1] (setting [7]) it was 2.44 µM. The minimal inhibitory concentration (MIC) in assay [2] and in assay [3] was greater than 32 µg/mL in each case.

Regarding `C[C@]1(Cn2ccnn2)[C@H](C(=O)O)N2C(=O)C[C@H]2S1(=O)=O` [tazobactam, reference compound], in assay [1] (90 min preincubation), the “AC50 with concentrated preincubation relative to AC50 under standard assay protocol” value is reported as “almost three-fold lower”. For the same compound, the AC50 in assay [1] (setting [4]) came out at 0.79 µM; in assay [1] (setting [5]) it was 0.82 µM; in assay [1] (preincubation time 90 min, concentrated compound and enzyme, diluted 1:5 before nitrocefin, read-out: OXA-48 AC50, High Dose Preincubation), 0.097 µM; in assay [1] (preincubation time 90 min, read-out: OXA-48 AC50, Standard Preincubation), 0.26 µM. In addition, the MIC in assay [2] and in assay [3] was greater than 32 µg/mL throughout.
